# Assay results taken from patent US20230041743A1, “1,8-NAPHTHYRIDIN-2-ONE COMPOUNDS FOR THE TREATMENT OF AUTOIMMUNE DISEASE” (Hoffmann-La Roche Inc., priority 2019, published 2023).
# Biological target: T1, human TLR7 (Homo sapiens, UniProt Q9NYK1)
# T1 construct: host or cells: HEK293 (HEK-Blue hTLR7)
# T1 sequence (Q9NYK1 27-1049): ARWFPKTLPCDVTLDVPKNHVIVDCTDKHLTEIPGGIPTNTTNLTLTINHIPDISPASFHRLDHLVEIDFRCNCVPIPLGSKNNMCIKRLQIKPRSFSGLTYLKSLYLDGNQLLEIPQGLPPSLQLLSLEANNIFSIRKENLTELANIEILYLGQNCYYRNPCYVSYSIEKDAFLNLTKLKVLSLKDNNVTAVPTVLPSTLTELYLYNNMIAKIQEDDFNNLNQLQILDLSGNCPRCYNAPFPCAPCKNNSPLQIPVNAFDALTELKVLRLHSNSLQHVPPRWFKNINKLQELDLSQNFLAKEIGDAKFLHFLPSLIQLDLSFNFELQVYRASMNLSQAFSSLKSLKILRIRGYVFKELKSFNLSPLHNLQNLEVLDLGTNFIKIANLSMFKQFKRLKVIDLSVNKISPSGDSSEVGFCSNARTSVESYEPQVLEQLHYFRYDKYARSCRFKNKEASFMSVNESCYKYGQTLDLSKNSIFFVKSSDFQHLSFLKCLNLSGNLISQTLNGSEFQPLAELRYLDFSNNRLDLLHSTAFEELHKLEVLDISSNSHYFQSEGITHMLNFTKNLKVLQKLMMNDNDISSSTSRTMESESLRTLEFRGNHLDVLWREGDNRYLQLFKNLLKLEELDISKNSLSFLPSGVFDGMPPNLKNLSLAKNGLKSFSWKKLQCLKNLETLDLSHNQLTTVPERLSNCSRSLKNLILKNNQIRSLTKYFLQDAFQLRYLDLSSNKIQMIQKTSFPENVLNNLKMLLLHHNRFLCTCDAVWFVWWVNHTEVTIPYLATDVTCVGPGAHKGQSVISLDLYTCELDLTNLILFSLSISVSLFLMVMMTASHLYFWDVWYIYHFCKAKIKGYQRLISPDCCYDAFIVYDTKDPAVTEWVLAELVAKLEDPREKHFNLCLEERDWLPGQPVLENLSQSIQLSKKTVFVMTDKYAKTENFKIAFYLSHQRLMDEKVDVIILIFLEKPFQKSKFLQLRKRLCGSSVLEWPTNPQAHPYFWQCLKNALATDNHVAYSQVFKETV
# Experiment: HEK293-Blue-hTLR-7 cells assay (SEAP reporter, R848 stimulation)
# Type: cell-based
# Conditions: HEK293-Blue-hTLR7 cells, R848 ligand, 20 hrs incubation; read-out: HEK/hTLR7 IC50
# Description: HEK293-Blue-hTLR-7 Cells Assay:
# A stable HEK293-Blue-hTLR-7 cell line was purchased from InvivoGen (Cat. #: hkb-htlr7, San Diego, Calif., USA). These cells were originally designed for studying the stimulation of human TLR7 by monitoring the activation of NF-κB. A SEAP (secreted embryonic alkaline phosphatase) reporter gene was placed under the control of the IFN-β minimal promoter fused to five NF-κB and AP-1-binding sites. The SEAP was induced by activating NF-κB and AP-1 via stimulating HEK-Blue hTLR7 cells with TLR7 ligands. Therefore the reporter expression was declined by TLR7 antagonist under the stimulation of a ligand, such as R848 (Resiquimod), for incubation of 20 hrs. The cell culture supernatant SEAP reporter activity was determined using QUANTI-Blue™ kit (Cat. #: rep-qb1, Invivogen, San Diego, Ca, USA) at a wavelength of 640 nm, a detection medium that turns purple or blue in the presence of alkaline phosphatase.
# HEK293-Blue-hTLR7 cells were incubated at a density of 250,000-450,000 cells/mL in a volume of 170 μL in a 96-well plate in Dulbecco's Modified Eagle's medium (DMEM) containing 4.5 g/L glucose, 50 U/mL penicillin, […], […], 2 mM L-glutamine, 10% (v/v) heat-inactivated fetal bovine serum with addition of 20 μL test compound in a serial dilution in the presence of final DMSO at 1% and 10 μL of 20 uM R848 in above DMEM, perform incubation under 37° C. in a CO2 incubator for 20 hrs. Then 20 μL of the supernatant from each well was incubated with 180 μL Quanti-blue substrate solution at 37° C. for 2 hrs and the absorbance was read at 620˜655 nm using a spectrophotometer. The signaling pathway that TLR7 activation leads to downstream NF-κB activation has been widely accepted, and therefore similar reporter assay was modified for evaluating TLR7 antagonist.
row,IC50 [nM],SMILES
1,62.6,"CO[C@H]1CCN(c2ccc3c(c2)CN2[C@H](C)CN(c4cc(=O)n(C)c5ncccc45)C[C@H]32)C[C@@H]1N [Example 9, 4-[(4R,10bS)-8-[(3S,4S)-3-amino-4-methoxy-1-piperidyl]-4-methyl-3,4,6,10b-tetrahydro-1H-pyrazino[2,1-a]isoindol-2-yl]-1-methyl-1,8-naphthyridin-2-one]"
2,8.6,"C[C@@H]1CN(c2cc(=O)n(C)c3ncccc23)C[C@@H]2c3ccc([C@@H]4C[C@H]5COC[C@@H](C4)N5)cc3CN12 [Example 28B, 4-[(4R,10bS)-4-methyl-8-(exo-3-oxa-9-azabicyclo[3.3.1]nonan-7-yl)-3,4,6,10b-tetrahydro-1H-pyrazino[2,1-a]isoindol-2-yl]-1-methyl-1,8-naphthyridin-2-one]"
3,31,"C[C@@H]1CN(c2cc(=O)n(C)c3ncccc23)C[C@@H]2c3ccc(OCCN(C)C)cc3CN12 [Example 23, 4-[(4R,10bS)-8-[2-(dimethylamino)ethoxy]-4-methyl-3,4,6,10b-tetrahydro-1H-pyrazino[2,1-a]isoindol-2-yl]-1-methyl-1,8-naphthyridin-2-one]"
4,6.7,"C[C@@H]1CN(c2cc(=O)n(C)c3ncccc23)C[C@@H]2c3ccc(C4CCCNC4)cc3CN12 (stereo partly drawn) [Example 25, 4-[(4R,10bS)-4-methyl-8-(3-piperidyl)-3,4,6,10b-tetrahydro-1H-pyrazino[2,1-a]isoindol-2-yl]-1-methyl-1,8-naphthyridin-2-one]"
5,3.7,"C[C@@H]1CN(c2cc(=O)n(C)c3ncccc23)C[C@@H]2c3ccc(C4CCNCC4)cc3CN12 [Example 24, 4-[(4R,10bS)-4-methyl-8-(4-piperidyl)-3,4,6,10b-tetrahydro-1H-pyrazino[2,1-a]isoindol-2-yl]-1-methyl-1,8-naphthyridin-2-one]"
6,13,"C[C@@H]1CN(c2cc(=O)n(C)c3ncccc23)C[C@@H]2c3ccc(N4CCN[C@@H](C)C4)cc3CN12 [Example 13, 4-[(4R,10bS)-4-methyl-8-[(3S)-3-methylpiperazin-1-yl]-3,4,6,10b-tetrahydro-1H-pyrazino[2,1-a]isoindol-2-yl]-1-methyl-1,8-naphthyridin-2-one]"
7,11.5,"C[C@@H]1CN(c2cc(=O)n(C)c3ncccc23)C[C@@H]2c3ccc(N4CC5(CN(C)C5)C4)cc3CN12 [Example 2, 4-[(4R,10bS)-4-methyl-8-(6-methyl-2,6-diazaspiro[3.3]heptan-2-yl)-3,4,6,10b-tetrahydro-1H-pyrazino[2,1-a]isoindol-2-yl]-1-methyl-1,8-naphthyridin-2-one]"
8,8.3,"C[C@@H]1CN(c2cc(=O)n(C)c3ncccc23)C[C@@H]2c3ccc(C4CCNC4)cc3CN12 (stereo partly drawn) [Example 26, 4-[(4R,10bS)-4-methyl-8-pyrrolidin-3-yl-3,4,6,10b-tetrahydro-1H-pyrazino[2,1-a]isoindol-2-yl]-1-methyl-1,8-naphthyridin-2-one]"
9,11.9,"C[C@@H]1CN(c2cc(=O)n(C)c3ncccc23)C[C@@H]2c3ccc(N4CCNCC4)cc3CN12 [Example 12, 4-[(4R,10bS)-4-methyl-8-piperazin-1-yl-3,4,6,10b-tetrahydro-1H-pyrazino[2,1-a]isoindol-2-yl]-1-methyl-1,8-naphthyridin-2-one]"
10,15.9,"C[C@@H]1CN(c2cc(=O)n(C)c3ncccc23)C[C@@H]2c3ccc(N4CCC[C@@H](N)C4)cc3CN12 [Example 16, 4-[(4R,10bS)-8-[(3R)-3-amino-1-piperidyl]-4-methyl-3,4,6,10b-tetrahydro-1H-pyrazino[2,1-a]isoindol-2-yl]-1-methyl-1,8-naphthyridin-2-one]"

row,SMILES,IC50 [nM]
1,"C[C@@H]1CN(c2cc(=O)n(C)c3ncccc23)C[C@@H]2c3ccc([C@H]4C[C@H]5COC[C@@H](C4)N5)cc3CN12 [Example 28A, 4-[(4R,10bS)-4-methyl-8-(endo-3-oxa-9-azabicyclo[3.3.1]nonan-7-yl)-3,4,6,10b-tetrahydro-1H-pyrazino[2,1-a]isoindol-2-yl]-1-methyl-1,8-naphthyridin-2-one]",7.2
2,"C[C@@H]1CN(c2cc(=O)n(C)c3ncccc23)C[C@@H]2c3ccc(N4CC5CCC(C4)N5)cc3CN12 [Example 21, 4-[(4R,10bS)-8-(3,8-diazabicyclo[3.2.1]octan-3-yl)-4-methyl-3,4,6,10b-tetrahydro-1H-pyrazino[2,1-a]isoindol-2-yl]-1-methyl-1,8-naphthyridin-2-one]",13.7
